The nature of data set [1]: Inhibition of HIV reverse transcriptase transfected in HEK293T cells assessed as reduction in viral replication measured at 48 hrs postinfection by luciferase reporter based single-cycle non replicative phenotypic assay. It counts as cell-based. The following applies: Human immunodeficiency virus 1, HEK-293T.
Data set [2] can be described thus: Cytotoxicity against mouse EL4.3 cells assessed as reduction in cell viability by MTT assay. It is filed as cell-based.

As to `CCc1nnn(Cc2cc(C)cc(C)c2)c1CCO`, the IC50 in data set [1] (read-out: IC50) is greater than 100 µM. The cytotoxic concentration (CC50) in data set [2] was greater than 100 µM. With `CCc1nn(CCO)nc1Cc1cc(Cl)cc(Cl)c1`, the half-maximal inhibitory concentration (IC50) in data set [1] (read-out: IC50) was determined as 23.8 µM. The CC50 in data set [2] was 84.7 µM. `Cc1ccnc2c1NC(=O)c1cccnc1N2C1CC1` [NEVIRAPINE]: the IC50 in data set [1] is 0.091 µM.

On to `OCc1cn(Cc2cc(C(F)(F)F)cc(C(F)(F)F)c2)nn1`, for which, in data set [1] (read-out: IC50), the IC50 is greater than 24.5 µM. Also, the CC50 in data set [2] is greater than 53.4 µM. Taken in the same sequence, the figures for `CCc1nn(CCO)nc1Cc1cc(C)cc(C)c1` were greater than 100 µM and greater than 100 µM.

On to `CCc1nnn(Cc2cccc(C#N)c2)c1CCO`, for which the IC50 in data set [1] (read-out: IC50) was greater than 100 µM. Moreover, the CC50 in data set [2] was greater than 100 µM.

Turning to `Cc1cc(C)cc(Cn2cc(CO)nn2)c1`, in data set [1] (read-out: IC50), the IC50 worked out at 27.8 µM. In data set [2], the CC50 is greater than 100 µM.

On to `CCc1nn(CCO)nc1C(OC)c1cc(Cl)cc(Cl)c1` (stereo not drawn), for which, in data set [1] (read-out: IC50), the IC50 is 14.1 µM. The CC50 in data set [2] amounted to 95.1 µM. With `CCc1nnn(Cc2cc(Cl)cc(Cl)c2)c1CCO`, in data set [1] (read-out: IC50), the half-inhibitory concentration (IC50) is 72.6 µM. The cytotoxic concentration (CC50) in data set [2] is greater than 100 µM. Taken in the same sequence, the figures for `CCc1c(CCO)nnn1Cc1ccccc1` were greater than 100 µM and greater than 100 µM.

On to `CCc1c(CCO)nnn1Cc1cccc(C#N)c1`, for which, in data set [1] (read-out: IC50), the IC50 is greater than 100 µM. Moreover, the CC50 in data set [2] is greater than 100 µM. `CCc1nn(CC)nc1C(OC)c1cc(Cl)cc(Cl)c1` (stereo not drawn): the IC50 in data set [1] (read-out: IC50) was greater than 49 µM. Also, the CC50 in data set [2] was 89 µM.

In the case of `OCc1cn(Cc2ccccc2)nn1`, the half-inhibitory concentration (IC50) in data set [1] (read-out: IC50) was greater than 83.5 µM. In addition, the CC50 in data set [2] was greater than 100 µM. With `CCc1nnn(Cc2ccccc2)c1CCO`, the IC50 in data set [1] (read-out: IC50) was greater than 100 µM. For the same molecule, in data set [2], the CC50 is greater than 100 µM. For `CCc1c(CCO)nnn1Cc1cc(Cl)cc(Cl)c1`, the half-maximal inhibitory concentration (IC50) in data set [1] (read-out: IC50) turned out to be 45.2 µM. Besides, in data set [2], the CC50 is greater than 100 µM. For `CCc1nn(CCO)nc1Cc1cccc(C#N)c1`, in that order: greater than 100 µM and greater than 100 µM.

As for `N#Cc1cccc(Cn2cc(CCO)nn2)c1`, in data set [1] (read-out: IC50), the IC50 is greater than 83.5 µM. Further, the CC50 in data set [2] was greater than 100 µM.

The record behind these values is ChEMBL document CHEMBL3817766, “Application of the Huisgen cycloaddition and 'click' reaction toward various 1,2,3-triazoles as HIV non-nucleoside reverse transcriptase inhibitors” (Bioorg Med Chem Lett, 2016).
